Reference: BigSolDB 2.1

CC1(C)COP(=O)(C(C)(O)c2ccccc2)OC1 (configuration not stated)
Conditions	solubility (mole fraction)
in 1,2-dichloroethane, 278.35 K	0.00107
in 1,2-dichloroethane, 283.25 K	0.00117
in 1,2-dichloroethane, 288.45 K	0.00154
in 1,2-dichloroethane, 293.35 K	0.00171
in 1,2-dichloroethane, 298.25 K	0.00218
in 1,2-dichloroethane, 303.15 K	0.00258
in 1,2-dichloroethane, 308.25 K	0.00291
in 1,2-dichloroethane, 313.15 K	0.00359
in 1,2-dichloroethane, 318.05 K	0.00454
in 1,2-dichloroethane, 322.95 K	0.00542
in 1,2-dichloroethane, 328.15 K	0.00651
in 1,2-dichloroethane, 333.25 K	0.00803
in 1,2-dichloroethane, 338.15 K	0.00933
in acetone, 278.15 K	0.00106
in acetone, 283.25 K	0.00132
in acetone, 288.45 K	0.0018
in acetone, 293.25 K	0.0023
in acetone, 298.35 K	0.0031
in acetone, 303.35 K	0.00363
in acetone, 308.15 K	0.00469
in acetone, 313.25 K	0.00547
in acetone, 318.05 K	0.00593
in acetone, 323.15 K	0.00616
in acetonitrile, 283.25 K	0.00144
in acetonitrile, 288.45 K	0.00169
in acetonitrile, 293.35 K	0.00198
in acetonitrile, 298.25 K	0.00221
in acetonitrile, 303.25 K	0.00268
in acetonitrile, 308.15 K	0.00342
in acetonitrile, 313.35 K	0.00392
in acetonitrile, 318.15 K	0.0046
in acetonitrile, 323.05 K	0.00562
in acetonitrile, 327.95 K	0.00654
in acetonitrile, 333.05 K	0.00866
in chloroform, 278.25 K	0.0048
in chloroform, 283.35 K	0.00547
in chloroform, 288.15 K	0.00651
in chloroform, 293.05 K	0.00768
in chloroform, 298.45 K	0.00866
in chloroform, 303.35 K	0.00944
in chloroform, 308.15 K	0.0111
in chloroform, 313.05 K	0.0128
in chloroform, 317.95 K	0.0154
in chloroform, 323.15 K	0.0188
in ethanol, 278.45 K	0.00558
in ethanol, 283.25 K	0.00618
in ethanol, 288.15 K	0.0068
in ethanol, 293.25 K	0.00786
in ethanol, 298.35 K	0.00933
in ethanol, 303.05 K	0.0106
in ethanol, 307.95 K	0.0125
in ethanol, 313.05 K	0.014
in ethanol, 318.15 K	0.0169
in ethanol, 323.05 K	0.0195
in ethanol, 327.95 K	0.0239
in ethanol, 333.15 K	0.0293
in ethanol, 338.05 K	0.0327
in ethanol, 343.15 K	0.0374
in ethyl acetate, 297.95 K	0.00054
in ethyl acetate, 303.35 K	0.00092
in ethyl acetate, 308.45 K	0.00131
in ethyl acetate, 313.15 K	0.00166
in ethyl acetate, 318.05 K	0.00221
in ethyl acetate, 323.05 K	0.0024
in ethyl acetate, 328.35 K	0.00283
in ethyl acetate, 333.25 K	0.00307
in ethyl acetate, 338.15 K	0.00336
in ethyl acetate, 342.95 K	0.0036
in methanol, 283.35 K	0.0112
in methanol, 288.15 K	0.0132
in methanol, 293.25 K	0.0146
in methanol, 298.31 K	0.0168
in methanol, 303.15 K	0.0196
in methanol, 307.95 K	0.0223
in methanol, 313.05 K	0.0259
in methanol, 317.95 K	0.0285
in methanol, 323.15 K	0.0321
